Each structure is given as a SMILES string. pIC50: −log10 of the molar value. Starred links: 1 amine or outer side, 2 acyl side, 3 side chain; linkers in the order of their positions; H or OH if unused. Positions of bridges follow the written chain, without caps; N, C: chain ends. Non-standard residues stand in square brackets, D forms with d. Residues, ends and D or L forms follow the SMILES beside them. *: point of attachment. hPhe(3,5-F2-4-CF3) = N[C@@H](CCc1cc(F)c(C(F)(F)F)c(F)c1)C(=O)O; NMeAbu(3,3-F2-piperidino) = CN[C@@H](CCN1CCCC(F)(F)C1)C(=O)O; hPhe(3-Cl-4-CF3) = N[C@@H](CCc1ccc(C(F)(F)F)c(Cl)c1)C(=O)O; NMePhe(4-CF3) = CN[C@@H](Cc1ccc(C(F)(F)F)cc1)C(=O)O; X71 = O=C([C@H](Cc1cc(Cl)cc(I)c1)N[*:1])[*:2]; NMeAbu(4,4,4-F3) = CN[C@@H](CC(F)(F)F)C(=O)O; NMePhe(4-Me) = CN[C@@H](Cc1ccc(C)cc1)C(=O)O; X62 = O=C([C@H](Cc1cc(I)ccc1Br)N[*:1])[*:2]; NMeAla(cPent) = CN[C@@H](CC1CCCC1)C(=O)O; Pro(4,4-F2) = O=C(O)[C@@H]1CC(F)(F)CN1; NMeY = CN[C@@H](Cc1ccc(O)cc1)C(=O)O; NMeCha = CN[C@@H](CC1CCCCC1)C(=O)O; Hyp = O=C(O)[C@@H]1C[C@@H](O)CN1; NMeChg = CN[C@H](C(=O)O)C1CCCCC1; NMeI = CC[C@H](C)[C@H](NC)C(=O)O; NMeD = CN[C@@H](CC(=O)O)C(=O)O; NMeL = CN[C@@H](CC(C)C)C(=O)O; NMeNva = CCC[C@H](NC)C(=O)O; NMeV = CN[C@H](C(=O)O)C(C)C; NMeAbu = CC[C@H](NC)C(=O)O; NMeA = CN[C@@H](C)C(=O)O; NMeAib = CNC(C)(C)C(=O)O; Nle = CCCC[C@H](N)C(=O)O; Piperidide = C1CCN(*)CC1; Pyrrolidide = C1CCN(*)C1; Ac5c = NC1(C(=O)O)CCCC1; Aze = O=C(O)[C@@H]1CCN1; X1 = FC1(F)CN(*)CC1(F)F; Sar = CNCC(=O)O

The target of this experiment is T1, Kras and SOS1 (biotin-tagged human Kras loaded with GDP, His-tagged human SOS1) (Homo sapiens, UniProt P01116, G12D).
T1 construct: made in house; host or cells: E. coli (stated for Kras only)
T1 sequence (P01116 1-188 isoform P01116-2 G12D): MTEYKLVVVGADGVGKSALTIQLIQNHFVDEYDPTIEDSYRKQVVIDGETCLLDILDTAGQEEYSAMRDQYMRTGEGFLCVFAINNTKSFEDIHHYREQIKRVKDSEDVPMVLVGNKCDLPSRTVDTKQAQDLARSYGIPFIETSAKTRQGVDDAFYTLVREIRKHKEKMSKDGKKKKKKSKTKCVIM
In words: Protein-protein interaction inhibition between Kras and SOS1 (KrasGl2D-SOS PPI) using AlphaScreen. As to conditions: AlphaScreen; biotin-tagged human Kras loaded with GDP, His-tagged human SOS1; read-out: KRAS G12D-SOS PPI IC50. The class given is binding. Put shortly: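 AlphaScreen format: Ni donor beads capture His-SOS1, streptavidin acceptor beads capture biotinylated Kras (E. coli-expressed, GDP-loaded post-purification). Excite 680 nm, read 520-620 nm.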

As to `CC[C@H](C)[C@@H]1NC(=O)[C@H](CC(C)C)N(C)C(=O)C[C@@H](C(=O)N(C)C)N(C)C(=O)[C@H]([C@@H](C)CC)N(C)C(=O)[C@H](C)NC(=O)[C@H](CCN2CCCC(F)(F)C2)N(C)C(=O)[C@H](CCc2ccc(C(F)(F)F)c(Cl)c2)NC(=O)CN(C)C(=O)[C@H](Cc2ccc(C)cc2)N(C)C(=O)[C@@H]2CCN2C(=O)[C@H](C)N(C)C1=O` [Compound 1135] ([NMeL]I[NMeA][Aze][NMePhe(4-Me)][Sar][hPhe(3-Cl-4-CF3)][NMeAbu(3,3-F2-piperidino)]A[NMeI][NMeD]-NMe2; lactam N-11), the pIC50 was 8.24.

Consider `CC[C@H](C)[C@@H]1NC(=O)[C@H](CC(C)C)N(C)C(=O)C[C@@H](C(=O)N2CC(F)(F)C(F)(F)C2)N(C)C(=O)[C@H](C(C)C)N(C)C(=O)C2(CCCC2)NC(=O)[C@@H]2CCCN2C(=O)[C@H](CCc2ccc(C(F)(F)F)c(Cl)c2)NC(=O)CN(C)C(=O)[C@H](CC2CCCCC2)N(C)C(=O)[C@@H]2CCN2C(=O)[C@H](C)N(C)C1=O` [Compound 1136] ([NMeL]I[NMeA][Aze][NMeCha][Sar][hPhe(3-Cl-4-CF3)]P[Ac5c][NMeV][NMeD]-X1; lactam N-11), for which the pIC50 is 7.15. The result for `CCO[C@@H]1C[C@H]2C(=O)NC3(CCCC3)C(=O)N(C)[C@@H](C3CCCCC3)C(=O)N(C)[C@H](C(=O)N3CCCC3)CC(=O)N(C)[C@@H](CC(F)(F)F)C(=O)N[C@@H]([C@@H](C)CC)C(=O)N(C)CC(=O)N(C)CC(=O)N(C)[C@@H](Cc3ccc(C(F)(F)F)cc3)C(=O)N(C)CC(=O)N[C@@H](CCc3ccc(C(F)(F)F)c(Cl)c3)C(=O)N2C1` [Compound 1139] ([NMeAbu(4,4,4-F3)]I[Sar][Sar][NMePhe(4-CF3)][Sar][hPhe(3-Cl-4-CF3)][Hyp](Et)[Ac5c][NMeChg][NMeD]-Pyrrolidide; lactam N-11) reads 9.23; that for `CC[C@H](C)[C@@H]1NC(=O)[C@H](CC2CCCC2)N(C)C(=O)C[C@@H](C(=O)N(C)C)N(C)C(=O)[C@H]([C@@H](C)CC)N(C)C(=O)C2(CCCC2)NC(=O)[C@@H]2CCCN2C(=O)[C@H](CCc2ccc(C(F)(F)F)c(Cl)c2)NC(=O)CN(C)C(=O)[C@H](Cc2ccc(C)cc2)N(C)C(=O)[C@@H]2CCN2C(=O)[C@H](C)NC1=O` [Compound 1141] ([NMeAla(cPent)]IA[Aze][NMePhe(4-Me)][Sar][hPhe(3-Cl-4-CF3)]P[Ac5c][NMeI][NMeD]-NMe2; lactam N-11), 9.01; that for `CCCC[C@@H]1NC(=O)[C@H](Cc2cc(I)ccc2Br)NC(=O)CN(C)C(=O)[C@H](Cc2ccc(OC)cc2)N(C)C(=O)[C@@H]2CCN2C(=O)[C@H](C)N(C)C(=O)[C@H]([C@@H](C)CC)NC(=O)[C@H](CC)N(C)C(=O)C[C@@H](C(=O)N2CCCCC2)N(C)C(=O)[C@H](CC(C)C)NC(=O)C(C)(C)N(C)C1=O` [Compound 1155] ([NMeAbu]I[NMeA][Aze][NMeY](Me)[Sar][X62][Nle][NMeAib]L[NMeD]-Piperidide; lactam N-11), 6.77. As to `CCCC[C@@H]1NC(=O)[C@H](Cc2cc(Cl)cc(I)c2)NC(=O)CN(C)C(=O)[C@H](Cc2ccc(OC)cc2)N(C)C(=O)[C@@H]2CCN2C(=O)[C@H](C)N(C)C(=O)[C@H]([C@@H](C)CC)NC(=O)[C@H](CC)N(C)C(=O)C[C@@H](C(=O)N2CCCCC2)N(C)C(=O)[C@H](CC(C)C)NC(=O)C(C)(C)N(C)C1=O` [Compound 1156] ([NMeAbu]I[NMeA][Aze][NMeY](Me)[Sar][X71][Nle][NMeAib]L[NMeD]-Piperidide; lactam N-11), the pIC50 is 6.85. Turning to `CC[C@H](C)[C@@H]1NC(=O)[C@H](CC(C)C)N(C)C(=O)C[C@@H](C(=O)N2CCCCC2)N(C)C(=O)[C@H](C2CCCCC2)N(C)C(=O)[C@H](C(C)C)NC(=O)[C@@H]2CCCN2C(=O)[C@H](CCc2ccc(C(F)(F)F)c(Cl)c2)NC(=O)CN(C)C(=O)[C@H](CC2CCCCC2)N(C)C(=O)CN(C)C(=O)CN(C)C1=O` [Compound 1157] ([NMeL]I[Sar][Sar][NMeCha][Sar][hPhe(3-Cl-4-CF3)]PV[NMeChg][NMeD]-Piperidide; lactam N-11), the negative-log IC50 (pIC50) is 8.80. Consider `CCC[C@H]1C(=O)N[C@@H]([C@@H](C)CC)C(=O)N(C)CC(=O)N(C)CC(=O)N(C)[C@@H](CC2CCCCC2)C(=O)N(C)CC(=O)N[C@@H](CCc2cc(F)c(C(F)(F)F)c(F)c2)C(=O)N2CC(F)(F)C[C@H]2C(=O)NC2(CCCC2)C(=O)N(C)[C@@H](C2CCCCC2)C(=O)N(C)[C@H](C(=O)N2CCCC2)CC(=O)N1C` [Compound 1160] ([NMeNva]I[Sar][Sar][NMeCha][Sar][hPhe(3,5-F2-4-CF3)][Pro(4,4-F2)][Ac5c][NMeChg][NMeD]-Pyrrolidide; lactam N-11), for which the pIC50 is 9.38.

As a reminder, the pIC50 is the negative decadic logarithm of the IC50, by convention in mol/L.

(Values after US12371454B2, “Cyclic peptide compound having Kras inhibitory action” (priority 2019, dated 2025).)
